Results: patent publication US20230181746A1, “BENZOYLHYDRAZIDE-DERIVED HDAC DEGRADERS AS THERAPEUTICS FOR TREATING CANCER AND OTHER HUMAN DISEASES” (University of Florida Research Foundation, Inc., priority 2020, published 2023)

How the values were obtained:
HDAC1 [1] = molecular target: T1, HDAC1 (Homo sapiens, UniProt Q13547); assay: HDAC1 protein level in breast cancer cell lines, Western blot; format: cell-based; settings: MDA-MB-468 cells, 14 h
Protocol: (§1) FIG. 3A: Western blot showing HDAC protein levels in MDA-MB-468 cells treated with the indicated concentration of XZ9002 for 14 h. FIG. 3B: pretreatment with 1 μM MG132, or 10 μM VHL032 for 1 h blocked the degradation of HDAC3 by XZ9002 {125 nM}. […] NC: XZ9002-NC. FIG. 3C: time-dependent experiment in MDA-MB-468 cells after treatment with 125 nM XZ9002 at the indicated time points. FIG. 3D: MDA-MB-468 cells were incubated with 125 nM of XZ9002 for 14 h followed by drug washout, and incubation of the cells in drug-free medium for an additional time. Data are presented as representative figures of two independent experiments.
(§2) The culture of the triple-negative breast cancer cell line MDA-MB-468 and the ER+ breast cancer cell line T47D was exposed to vehicle control (DMSO) and the indicated compounds at specified concentrations for 14 h. Cells were lysed for WB with antibodies against the indicated proteins. Antibodies against acetylated histones at specific sites (H3K27 and H4K5) and acetyl-lysine were used to assess levels of histone acetylation. Levels of HDAC3 were normalized against that of tubulin and % of HDAC3 protein levels in cells treated with the indicated compounds relative to that in DMSO control is shown.
Cell lines were obtained from ATCC and subsequently authenticated. […]

[2] = tested on: NCI-60 panel of 60 cancer lines; assay: NCI-60 cell line panel proliferation; format: cell-based; settings: five doses; leukemia, NSCLC, colon, CNS, melanoma, ovarian, renal, prostate and breast cancer lines
Protocol: The indicated cancer cell lines were treated with XZ9002 at five different doses. The percentage growth relative to the cell numbers before compound exposure was plotted against the XZ9002 concentrations in the log scale.

HDAC2 [3] = molecular target: T2, HDAC2 (Homo sapiens, UniProt Q92769); assay: HDAC2 protein level in breast cancer cell lines, Western blot; format: cell-based; settings: MDA-MB-468 cells, 14 h
T2 sequence (Q92769 whole entry): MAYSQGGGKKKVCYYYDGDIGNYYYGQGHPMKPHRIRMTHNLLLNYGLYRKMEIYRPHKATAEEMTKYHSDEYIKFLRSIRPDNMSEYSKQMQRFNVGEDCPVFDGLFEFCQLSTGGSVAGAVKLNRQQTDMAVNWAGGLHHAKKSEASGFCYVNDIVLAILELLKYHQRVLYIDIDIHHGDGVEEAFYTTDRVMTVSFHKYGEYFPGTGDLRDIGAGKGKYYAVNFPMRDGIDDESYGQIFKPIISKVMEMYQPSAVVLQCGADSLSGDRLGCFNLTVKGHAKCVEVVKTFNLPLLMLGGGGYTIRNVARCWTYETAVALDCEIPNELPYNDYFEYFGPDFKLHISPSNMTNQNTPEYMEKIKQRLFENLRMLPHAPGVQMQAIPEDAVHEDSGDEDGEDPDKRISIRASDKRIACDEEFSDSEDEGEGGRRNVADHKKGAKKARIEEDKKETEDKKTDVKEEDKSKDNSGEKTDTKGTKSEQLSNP
Protocol: as §1, §2
FIGS. 8A-8B show the cellular activity of XZ9002. […] Cells were lysed for WB. The relative HDAC3 protein level in each sample is shown. […]

MDA-MB-468 cells = assay: Cell viability assay (CellTiter-Glo); format: cell-based; settings: MDA-MB-468, 72 h; similar trends in MDA-MB-231 and T47D cells
Protocol: MDA-MB-468, MDA-MB-231, and T47D cells were treated with the indicated compounds at different concentrations for 72 h. Cell viability was assessed with CellTiter-Glo® reagents.
(§3) Cell lines were obtained from ATCC and subsequently authenticated. Cells were cultured with DMEM supplemented with 10% bovine calf serum, penicillin to 10 units/mL, and streptomycin to 10 μg/mL. For viability assays, 5,000 cells/well were seeded in 96-well plates. Compounds at a specified concentration or DMSO were added 24 h later. Viability assays were performed 72 h after compound addition using the CellTiter-Glo reagents (Promega). For colony formation assay, cells (˜1,000 cells/well) were seeded in a 24-well plate in quadruplicates. At 24 h after seeding, DMSO, XZ9002, or XZ9002-NC were added at a specified concentration. Medium was replaced with freshly prepared medium containing DMSO, XZ9002 or XZ9002-NC every five days until visible colonies appeared, typically in 15 to 20 days after initial cell seeding. Cells were fixed with 4% paraformaldehyde for 15 min and stained with 2% methylene blue in 20% ethanol for 30 min to 1 h. The cells were washed twice with distilled water and dried in air. For western blotting, cell cultures were exposed to compounds as indicated in relevant figures. Medium was removed from culture plate, and 1 x passive lysis buffer was then added, the plates were frozen at −80° C. overnight and thawed at room temperature. The total cell lysates were mixed with a one fifth volume of 6x SDS sample buffer, heated at 95° C. for 5 min and cooled on ice. The lysates were cleared by centrifugation and then subjected to SDS-PAGE and western blotting essentially as described. […]

HDAC1 [4] = molecular target: T1, HDAC1; assay: In vitro HDAC activity assay (HDAC-Glo I/II), HDAC1; format: biochemical; parameters: purchased Enzo Life Sciences BML-SE456-0050; settings: average of three independent assays ± standard deviation
Protocol: (§4) Purified HDAC1, HDAC2, and HDAC3 (in complex with the deacetylase activation domain of the human NCOR2 (amino acids 395-498)) were obtained from Enzo Life Sciences (HDAC1, catalog # BML-SE456-0050) and BPS Bioscience (HDAC2, catalog #50002 and HDAC3, catalog #50003), respectively. The enzyme activities were tested using the HDAC-Glo I/II reagents (Promega) according to a protocol provided by the manufacturer.

[5] = tested on: breast cancer cell lines MCF7, T47D, MDA-MB-468, HCC-1143 and BT479; assay: Clonogenic growth assay, breast cancer cell lines; format: cell-based; settings: compared with XZ9002-NC
Protocol: FIGS. 8A-8B show the cellular activity of XZ9002. […] Cells were lysed for WB. The relative HDAC3 protein level in each sample is shown. […] The indicated BC cell lines were exposed to DMSO, XZ9002, or XZ9002-NC at the indicated concentrations. Colonies were fixed and stained.
as §3, with “figures.” for “figures. Medium was removed from culture plate, and 1 x passive lysis buffer was then added, the plates were frozen at −80° C. overnight and thawed at room temperature. The total cell lysates were mixed with a one fifth volume of 6x SDS sample buffer, heated at 95° C. for 5 min and cooled on ice. The lysates were cleared by centrifugation and then subjected to SDS-PAGE and western blotting essentially as described.”

HDAC2 [6] = molecular target: T2, HDAC2; assay: In vitro HDAC activity assay (HDAC-Glo I/II), HDAC2; format: biochemical; parameters: purchased BPS Bioscience 50002; settings: average of three independent assays ± standard deviation
Protocol: as §4

HDAC3 = HDAC3 (Homo sapiens, UniProt O15379); assay: HDAC3 degradation in MDA-MB-231 xenograft tumors; format: in vivo; parameters: from tissue; host or cells: MDA-MB-231 xenograft tumours from NSG mice; settings: female NSG mice, MDA-MB-231 xenografts, 50 mg/kg i.p., tumors 24 h after dosing
Chain of HDAC3 (O15379 whole entry): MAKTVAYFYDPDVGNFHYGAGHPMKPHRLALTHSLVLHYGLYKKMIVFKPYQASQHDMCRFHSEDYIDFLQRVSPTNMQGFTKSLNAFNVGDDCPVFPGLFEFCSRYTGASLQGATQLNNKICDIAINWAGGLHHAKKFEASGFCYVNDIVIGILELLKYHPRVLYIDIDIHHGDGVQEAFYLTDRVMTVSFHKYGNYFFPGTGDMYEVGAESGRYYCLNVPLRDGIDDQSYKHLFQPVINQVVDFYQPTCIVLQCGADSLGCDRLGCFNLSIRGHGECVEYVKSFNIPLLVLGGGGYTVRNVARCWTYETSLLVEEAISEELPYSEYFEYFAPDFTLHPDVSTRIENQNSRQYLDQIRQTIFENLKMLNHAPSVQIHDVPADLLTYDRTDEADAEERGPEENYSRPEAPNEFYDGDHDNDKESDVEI
Chain of HDAC3 (Q9Y618 395-498 partner limits assumed): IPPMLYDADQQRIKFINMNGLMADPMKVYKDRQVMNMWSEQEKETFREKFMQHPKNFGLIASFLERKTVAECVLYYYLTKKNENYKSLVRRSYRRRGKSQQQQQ
Protocol: NSG mice bearing MDA-MB-231 xenografts were dosed with vehicle or XZ9002 (50 mg/kg) by i.p. Tumors were dissected from euthanized mice 24 h after dosing. The tumor lysates were analyzed by WB. The quantification is shown in lower panels. ***: p<0.0001 (t-test vs vehicle).

[7] = molecular target: T3, HDAC3 (in complex with the deacetylase activation domain of the human NCOR2 (amino acids 395-498)) (Homo sapiens, UniProt O15379); assay: In vitro HDAC activity assay (HDAC-Glo I/II), HDAC3; format: biochemical; settings: HDAC-Glo I/II; average of three independent assays ± standard deviation
T3 construct: purchased BPS Bioscience 50003
T3 sequence (O15379 whole entry, the tested form may be a part): as the sequence (O15379 whole entry) above
T3 sequence (Q9Y618 395-498 partner limits assumed): as the sequence (Q9Y618 395-498 partner limits assumed) above
Protocol: as §4

T1 sequence (Q13547 whole entry): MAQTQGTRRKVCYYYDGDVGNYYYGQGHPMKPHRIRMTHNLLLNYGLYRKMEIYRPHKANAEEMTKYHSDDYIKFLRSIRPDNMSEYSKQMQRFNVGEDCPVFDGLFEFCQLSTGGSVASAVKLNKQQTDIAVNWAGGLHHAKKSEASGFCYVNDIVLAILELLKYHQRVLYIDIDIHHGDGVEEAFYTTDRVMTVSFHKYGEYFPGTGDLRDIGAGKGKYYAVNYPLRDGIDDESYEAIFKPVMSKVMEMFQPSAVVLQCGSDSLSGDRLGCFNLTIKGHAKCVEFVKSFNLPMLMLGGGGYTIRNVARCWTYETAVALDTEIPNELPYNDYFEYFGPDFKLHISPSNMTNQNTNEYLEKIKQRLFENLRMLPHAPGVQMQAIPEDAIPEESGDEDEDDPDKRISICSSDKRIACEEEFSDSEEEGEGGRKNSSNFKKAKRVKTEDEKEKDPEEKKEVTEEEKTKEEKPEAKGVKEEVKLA

CCCNNC(=O)c1ccc(-c2ccc(NC(=O)CCCCCCC(=O)N[C@H](C(=O)N3C[C@H](O)C[C@H]3C(=O)N[C@@H](C)c3ccc(-c4scnc4C)cc3)C(C)(C)C)cc2)cc1 [XZ9002, N^1—((S)-1-((2S,4R)-4-hydroxy-2-(((S)-1-(4-(4-methylthiazol-5-yl)phenyl)ethyl)carbamoyl)pyrrolidin-1-yl)-3,3-dimethyl-1-oxobutan-2-yl)-N^5-(4′-(2-propylhydrazine-1-carbonyl)-[1,1′-biphenyl]-4-yl)octanediamide]
change in HDAC1 protein level (HDAC1 [1]): no significant changes | inhibition of proliferation [2]: effectively inhibits the proliferation | change in HDAC2 protein level (HDAC2 [3]): no significant changes | antiproliferative activity (in words) (MDA-MB-468 cells): more potent in killing cancer cells | IC50 (HDAC1 [4]): 650 ± 70 nM | suppression of colony formation [5]: more potent to suppress colony formation | IC50 (HDAC2 [6]): 1550 ± 70 nM | HDAC3 degradation in xenograft tumor (HDAC3): effectively degrade | IC50 [7]: 350 ± 70 nM
